Laboratory results from article PMC11487561 (ACS Chemical Neuroscience, 2024).

How the values were obtained:
[1] = Intrinsic clearance in human liver microsomes; assay type: in vitro ADME
Procedure: Intrinsic Clearance in Rat and Human Liver Microsomes
The in vitro intrinsic clearance (CL int) was investigated in commercially obtained hepatic microsomes from rat and human donors using the substrate depletion (i.e., loss-of-parent vs. time, or t 1/2 method) approach with analyte detection via liquid chromatography-tandem mass spectrometry (LC-MS/MS). For each species, mean %parent remaining values at each time point were calculated from replicates raw data (analyte:IS peak area ratios) and used to determine in vitro t 1/2 and CLint.
Experiments were carried out using a robot-assisted (TECAN model Evo 200). Compound was incubated (1 µM final concentration) in buffer (100 mM potassium phosphate pH 7.4 with 3 mM MgCl2) containing hepatic microsomes (0.5 mg/mL final concentration) from multiple species, discretely, at 37 °C under constant orbital shaking. After 5 minutes (pre-incubation), reactions were initiated by addition of nicotinamide adenine dinucleotide phosphate (NADPH, 1 mM final concentration). At selected time intervals (0, 3, 7, 15, 25, and 45 minutes) post-addition of NADPH, aliquots (50 µL) were taken and placed into a 96-shallow-well plate containing ice cold acetonitrile (150 µL) with carbamazepine (IS, 50 nM). The plates were then centrifuged (3000 rcf at 4 °C) for 10 minutes. The supernatants were transferred to a new 96-shallow-well daughter plate and diluted (1:1 v/v) with water (Milli-Q filtered). The plates were then sealed in preparation for LC-MS/MS analysis (see below).
Raw LC-MS/MS peak area data generated from the assay samples were used to construct natural log-transformed %parent remaining vs. time plots (using t = 0 minute post-NADPH addition sample data as starting point set to 100%). In vitro compound half-life (t 1/2) values were obtained using the following […]
k is the slope from linear regression analysis of the natural log-transformed data (using means from Where all replicates at each time point). Resulting t 1/2 values were then used to calculate hepatic CLint values according to the following equation and with the use of species-specific scale-up factors for liver weight (grams) per total body weight (kg): […]
CLint = in vitro t1/2 x 0.5 mg microsomes x 1 gram liver x kg body wt aScale-up factors used are 45 (rat) and 20 (human).2
Predicted hepatic clearance (CLhep) was calculated using the following equation: […]
Qh represents hepatic blood flow (mL/min/kg): 21 for human, 70 for rat, and 90 for mouse.
Prepared samples were injected (10 µL each) onto an AB Sciex Triple Quad 4500 mass spectrometer system with an Agilent 1260 Infinity II pump and autosampler. Mass spectrometer conditions are described in Table S1. Quantitation of compounds was performed via AB Sciex Multiquant software using the raw analyte:IS peak area ratios. The typical detection range was 0.5 ng/mL to ≥ 5,000 ng/mL utilizing a quadratic equation regression with 1/x2 weighting. […]
Table S1. LC-MS/MS Conditions*
Mobile phase A 0.5% Formic Acid in Water
Mobile phase B 0.5% Formic Acid in Acetonitrile
Gradient Time % Mobile Phase B

In vivo dog iv/po PK = test: In vivo dog iv/po PK
Procedure: Intravenous pharmacokinetics and plasma-brain level determination (IV PK PBL) VU6016235 […]
For dog PK, VU6016235 was formulated in 10% (2-Hydroxypropyl)-beta-cyclodextrin (HPbCD) at a concentration of 0.5 mg/ml and administered as a single dose of 0.5 mg/kg to male beagles (1 ml/kg, n=3).
Blood samples were collected serially from a surgically implanted carotid artery catheter in each animal over multiple post-administration time points (0.033, 0.117, 0.25, 0.5, 1, 2, 4, 7, and 24 hours) into chilled, K2EDTA anticoagulant-fortified tubes and immediately placed on wet ice. […]
over multiple post-administration time points (0.25, 0.5, 1, 2, 4, 7, and 24 hours) into chilled, K2EDTA anticoagulant-fortified tubes and immediately placed on wet ice. The blood samples were then centrifuged (1700 rcf, 5 minutes, 4 °C) in order to obtain plasma samples, which were stored at -80 °C until analysis […]
Samples preparation for bioanalysis
Plasma samples from the in-life phase of the study were thawed at ambient temperature (benchtop), and then aliquots (20 µL per sample) were transferred to a 96-shallow-well (V-bottom) plate. Matrix-matched quality control (QC) samples and a standard curve of […] (1 mg/mL DMSO stock solution) were prepared in blank rat plasma (K2EDTA-treated) or blank brain homogenate via serial dilution and transferred (20 µL each) to the plate along with multiple blank plasma and brain homogenate samples. Acetonitrile (120 µL) containing IS (10 nM carbamazepine) was added to each well of the plate to precipitate protein. The plate was then centrifuged (4000 rcf, 5 minutes, ambient temperature), and resulting supernatants (60 µL each) were transferred to a new 96-shallow-well (V-bottom) plate containing an equal volume (60 µL per well) of water (Milli-Q purified). […]
The plasma standard curve and QCs were used for compounds quantitation in brain.
Binding in plasma from rat and human.
Determination of compounds’ fraction unbound (f u) in plasma from rat and human was conducted in vitro via equilibrium dialysis using HTDialysis membrane plates. Dialysis membranes (four paired strips per HTD assay) were hydrated as described by the manufacturer and inserted into the HTD plate, which was assembled and prepared for sample addition by the dispensing of blank buffer (DPBS, 100 µL/well) into the ‘top half’ of each membrane-split well. Each compound was diluted into plasma from each species (5 µM final concentration), which was aliquoted in triplicate to the ‘bottom half’ of the prepared HTD plate wells. The HTD plate was sealed and incubated for 6 hours at 37 °C. Following incubation, each well (both top and bottom halves) were transferred (20 µL) to the corresponding wells of a 96-shallow-well (V-bottom) plate. The daughter plates were then matrix-matched (buffer side wells received equal volume of plasma, and plasma side wells received equal volume of buffer), and extraction solution (120 µL; acetonitrile containing 50 nM carbamazepine as IS) was added to all wells of both daughter plates to precipitate protein and extract test article. The plates were then sealed and centrifuged (3500 rcf) for 10 minutes at ambient temperature. Supernatant (60 µL) from each well of the daughter plates was then transferred to the corresponding wells of new daughter plates (96-shallow-well, V bottom) containing water (Milli-Q, 60 µL/well), and the plates were sealed in preparation for LC-MS/MS analysis (see below). fu was calculated as (analyte to IS MS peak area ratio from Trans-buffer side) / (analyte to IS MS peak area ratio from Cis-plasma side). Mean values for each species were calculated from 3 replicates.

[2] = test system: GABAA, Flunitrazepam, Central; test: Lead Profiling Screen – Eurofins Panlabs; assay type: binding, rat
[3] = biological target: Leukotriene, Cysteinyl CysLT1 (Homo sapiens, UniProt Q9Y271); test: Lead Profiling Screen – Eurofins Panlabs; assay type: binding; conditions: read-out: % inh at 10 μM
Leukotriene, Cysteinyl CysLT1, sequence (Q9Y271 whole entry): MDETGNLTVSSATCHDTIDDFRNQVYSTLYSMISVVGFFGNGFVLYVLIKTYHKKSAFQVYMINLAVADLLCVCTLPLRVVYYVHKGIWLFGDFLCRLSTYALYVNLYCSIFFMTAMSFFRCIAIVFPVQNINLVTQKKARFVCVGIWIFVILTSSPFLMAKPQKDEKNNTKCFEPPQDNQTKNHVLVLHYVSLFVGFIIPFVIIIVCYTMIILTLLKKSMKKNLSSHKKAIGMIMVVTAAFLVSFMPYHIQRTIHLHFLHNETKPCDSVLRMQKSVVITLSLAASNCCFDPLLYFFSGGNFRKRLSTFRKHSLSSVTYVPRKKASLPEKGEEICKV

Muscarinic M2 = Muscarinic M2 (Homo sapiens, UniProt P08172); test: Lead Profiling Screen – Eurofins Panlabs; assay type: binding; conditions: read-out: % inh at 10 μM
Muscarinic M2, sequence (P08172 whole entry): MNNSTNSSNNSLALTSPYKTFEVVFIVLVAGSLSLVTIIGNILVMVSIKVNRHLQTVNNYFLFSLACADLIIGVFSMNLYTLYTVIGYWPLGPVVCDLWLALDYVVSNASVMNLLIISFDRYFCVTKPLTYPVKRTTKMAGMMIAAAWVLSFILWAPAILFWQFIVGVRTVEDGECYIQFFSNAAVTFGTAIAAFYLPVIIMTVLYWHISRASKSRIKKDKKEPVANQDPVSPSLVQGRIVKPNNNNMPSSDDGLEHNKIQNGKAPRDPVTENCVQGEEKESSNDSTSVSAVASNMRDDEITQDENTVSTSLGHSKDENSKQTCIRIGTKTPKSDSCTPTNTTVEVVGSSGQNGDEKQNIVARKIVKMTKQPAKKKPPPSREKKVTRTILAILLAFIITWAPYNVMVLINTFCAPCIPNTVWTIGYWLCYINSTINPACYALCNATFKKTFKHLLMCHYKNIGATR

[4] = male, plasma, dog (beagle), iv 0.5 mg/kg
[5] = male, plasma, dog (beagle), po 1.0 mg/kg, fasted

Cc1nc(C)c2c(n1)sc1c(NCc3ccc(C(C)(C)O)cc3)nccc12 [22g]
CLint scaled at 1 µM ([1]; pH 7.4, human liver microsomes): 26 mL/min/kg
CLhep, human ([1]; predicted hepatic clearance from microsomal CLint): 12 mL/min/kg
plasma clearance as % hepatic blood flow (In vivo dog iv/po PK; dog): ~78 % hepatic blood flow
CLp (In vivo dog iv/po PK; dog (beagle), iv 0.5 mg/kg, listed as VU6016235, 0.5 mg/kg): 23.8 mL/min/kg
clearance (In vivo dog iv/po PK; male, beagle, dog, plasma, iv, 0.5 mg/kg, dog (beagle), iv 0.5 mg/kg, read-out: CLp): ~24 mL/min/kg
MRT (In vivo dog iv/po PK; [4]): 1.6 h
half-life (In vivo dog iv/po PK; [4]): 144 min
Vd (In vivo dog iv/po PK; male, plasma, dog (beagle), iv 0.5 mg/kg, read-out: Vss): 2.3 L/kg
AUC(0-inf) (In vivo dog iv/po PK; [5]): 200 ng·h/mL
Cmax (In vivo dog iv/po PK; [5]): 62.4 ng/mL
Tmax (In vivo dog iv/po PK; [5]): 49.8 min
bioavailability (In vivo dog iv/po PK; [5]): 27.5%
% inh at 10 μM [2]: 13%
inhibition at 10 µM [3]: 6%
inhibition at 10 µM (Muscarinic M2): 10%
